Measurements reported in patent publication US5284850A, “Terpene amino alcohols and medicinal uses thereof” (Kuraray Co., Ltd., priority 1985, dated 1994).

Test system: sensitized bronchial muscle
Experiment: Antiallergic action: inhibition of egg albumin-induced contraction of sensitized guinea pig bronchial muscle
Assay type: tissue-based, guinea pigs of Hartley strain
Conditions: Cavia porcellus; for inhibition at 1 µM: 10^-6 M; for inhibition at 0.1 µM: 10^-7 M; for inhibition at 0.01 µM: 10^-8 M; for inhibition at 10 µM: 10^-5 M; for inhibition at 100 µM: 10^-4 M
Protocol: Male guinea pigs of Hartley strain (body weight: about 250 g) were intraperitoneally or intramuscularly dosed with egg albumin (dose 100 mg/kg) and the same procedure was repeated after 3 days. After 3 to 4 weeks, the guinea pi-as were bled to death and the sensitized bronchial muscle was excised and cut into 1.5 mm thick rings. Three rings were joined to prepare a specimen. The specimen was suspended in a tissue bath and a load of 1 g was applied. […] After stabilization of the specimen (after about 1 hour), histamine hydrochloride was added to the bath at a final concentration of 10^-5 M. The contraction curve was recorded. After the contraction had been stabilized, the specimen was washed with 3 portions of Ringer's solution at 10-minute intervals to stabilize the contraction (about 1 hour was required). Then, the test compound was added to the tissue bath and, after an interval of 10 minutes, 5 mg/ml of egg albumin was added. The contraction amplitude of the specimen was measured and the percent inhibition was calculated according to the following formula. [formula] A: Contraction amplitude of control group when egg albumin is added A': Contraction amplitude of dosage group when egg albumin is added
H: Contraction amplitude of control group when histamine hydrochloride is added
H': Contraction amplitude of dosage group when histamine hydrochloride is added

Compound | inhibition at 1 µM | inhibition at 0.1 µM | inhibition at 0.01 µM | inhibition at 10 µM | inhibition at 100 µM
CC(C)CCCC(C)CCCC(C)(O)C(O)CN1CCN(C(c2ccccc2)c2ccccc2)CC1 (stereo not shown) [Compound (24)] | 75% | 60% | 25% | – | –
CC(C)CCCC(C)CCCC(C)(O)C(O)Cn1c(=O)[nH]c2ccccc21 (stereo not shown) [Compound (25)] | 69% | 47% | 19% | – | –
CC(C)CCCC(C)CCCC(C)(O)C(O)CN1CCSCC1 (stereo not shown) [Compound (26)] | 39% | 18% | – | 50% | –
CNCCC(C)(O)CCCC(C)(O)CCCC(C)C (stereo not shown) [Compound (27), 1-(methylamino)-3,7,11-trimethyl-3,7-dodecanediol] | – | 15.6% | – | – | –
CNCC(O)C(C)CCCC(C)CCCC(C)C (stereo not shown) [Compound (28), 1-methylamino-3,7,11-trimethyl-2-dodecanol] | 49% | 35% | – | 66% | –
CC(C)CCCC(C)(O)CCCC(C)(O)CCN(C)Cc1ccccc1 (stereo not shown) [Compound (29), 1-(methylbenzylamino)-3,7,11-trimethyl-3,7-dodecanediol] | – | 42.3% | – | – | –
CC(C)CCCC(C)CCCC(C)CCCC(C)(O)C(O)CN (stereo not shown) [Compound (30)] | 9% | – | – | 16.7% | –
CCCCN(CCCC)CC(O)C(C)(O)CCCC(C)CCCC(C)CCCC(C)C (stereo not shown) [Compound (34)] | 33% | 3% | – | 65.2% | –
CN(CCC(C)(O)CCCC(C)(O)CCCC(C)(C)O)Cc1ccccc1 (stereo not shown) [Compound (37), 1-(methylbenzylamino)-3,7,11-trimethyl-3,7,11-dodecanetriol] | – | 16% | – | – | –
CC(C)CCCC(C)CCCC(C)(O)C(O)CN1CCCC1 (stereo not shown) [Compound (38)] | – | 36.7% | – | – | –
CC(C)CCCC(C)CCCC(C)(O)C(O)CN1CCCCC1 (stereo not shown) [Compound (39)] | – | 29.1% | – | – | –
CC(C)CCCC(C)CCCC(C)(O)C(O)CNC1CCN(Cc2ccccc2)CC1 (stereo not shown) [Compound (40), 1-[(1-benzylpiperidin-4-yl)amino]-3,7-11-trimethyl-2,3-dodecanediol] | – | 34.8% | – | – | –
CC(C)CCCC(C)CCCC(C)(O)C(O)CNCc1cccnc1 (stereo not shown) [Compound (41)] | – | 46% | – | – | –
COc1ccccc1N1CCN(CC(O)C(C)(O)CCCC(C)CCCC(C)C)CC1 (stereo not shown) [Compound (42)] | 58% | 35% | – | – | –
CC(C)=CCCC(C)(O)C(O)CN (stereo not shown) [Compound (43)] | 65% | – | – | – | –
CNCC(O)C(C)(O)CCC=C(C)C (stereo not shown) [Compound (44)] | 54% | – | – | 63% | –
CC(C)=CCCC(C)(O)C(O)CN(C)C (stereo not shown) [Compound (45)] | 26% | – | – | 41% | 52%
CCNCC(O)C(C)(O)CCC=C(C)C (stereo not shown) [Compound (46)] | 23% | – | – | 54% | 38%
CCCNCC(O)C(C)(O)CCC=C(C)C (stereo not shown) [Compound (47)] | 43% | 5% | – | 52% | –
CCN(CC)CC(O)C(C)(O)CCC=C(C)C (stereo not shown) [Compound (48)] | 39% | – | – | 47% | –
CCCCNCC(O)C(C)(O)CCC=C(C)C (stereo not shown) [Compound (49)] | 61% | 20.7% | – | – | –
CC(C)=CCCC(C)(O)C(N)CO (stereo not shown) [Compound (50), 2-amino-3,7-dimethyl-6-octene-1,3-diol] | 20% | 0% | – | 55% | –
CC(C)=CCCC(C)(O)C(CO)N(C)C (stereo not shown) [Compound (51)] | 18% | 0% | – | 41% | –

Compound | inhibition at 1 µM | inhibition at 0.1 µM | inhibition at 0.01 µM | inhibition at 10 µM | inhibition at 100 µM
CCCNC(CO)C(C)(O)CCC=C(C)C (stereo not shown) [Compound (52)] | 31% | 7% | 0% | 62% | –
CCCCN(CCCC)C(CO)C(C)(O)CCC=C(C)C (stereo not shown) [Compound (53)] | 59% | 49% | 8% | 33% | –
CC(C)=CCCC(C)(O)C(CO)N1CCCC1 (stereo not shown) [Compound (54)] | 63% | 33% | 20% | 54% | –
CC(C)=CCCC(C)(O)C(CO)N1CCCCC1 (stereo not shown) [Compound (55)] | 17% | 9% | 0% | 45% | –
CC(C)=CCCC(C)(O)C(CO)N1CCOCC1 (stereo not shown) [Compound (56)] | 44% | 16% | 0% | 27% | –
CC(C)=CCCC(C)(O)C(CO)N(C)CCO (stereo not shown) [Compound (57)] | 17% | – | – | 35% | –
CC(C)CCCC(C)(O)C(N)CO (stereo not shown) [Compound (58)] | 0% | – | – | 0% | 21%
CCCCN(CCCC)C(CO)C(C)(O)CCCC(C)C (stereo not shown) [Compound (59), 2-(dibutylamino)-3,7-dimethyl-1,3-octanediol] | 51% | 0% | – | 49% | –
CC(C)CCCC(C)(O)C(CO)N(C)CCO (stereo not shown) [Compound (60), 2-[(2-hydroxyethyl)methylamino]-3,7-dimethyl-1,3-octanediol] | 11% | 0% | – | 35% | –
CC(C)CCCC(C)CCCC(C)(O)C(C)N (stereo not shown) [Compound (61)] | 48% | 24% | – | 70% | –
CNC(CO)C(C)(O)CCCC(C)CCCC(C)C (stereo not shown) [Compound (62)] | 35% | 12% | – | 39% | –
CC(C)CCCC(C)CCCC(C)(O)C(CO)NC1CCN(Cc2ccccc2)CC1 (stereo not shown) [Compound (63)] | 55% | 45% | 11% | – | –
CC(C)CCCC(C)CCCC(C)(O)C(CO)n1ccnc1 (stereo not shown) [Compound (64)] | – | 63% | – | – | –
COc1ccc(CN2CCN(C(CO)C(C)(O)CCCC(C)CCCC(C)C)CC2)c(OC)c1OC (stereo not shown) [Compound (65)] | 54% | 37% | – | 73% | –
CC(C)CCCC(C)CCCC(C)(O)C(CO)N(C)C(=O)c1cccnc1 (stereo not shown) [Compound (66), N-methyl-N-(1,3-dihydroxy-3,7,11-trimethyldodecan-2-yl)nicotinamide] | 72% | 81% | – | 77% | –
CC(C)CCCC(C)CCCC(C)(O)C(CO)NCCO (stereo not shown) [Compound (67)] | 49% | 18% | – | 46% | –
CC(C)CCCC(C)CCCC(C)(O)C(CO)N1CCSCC1 (stereo not shown) [Compound (68)] | 36% | 22% | – | 38% | –
CC(C)CCCC(C)CCCC(C)(O)C(CO)NCCCN1CCOCC1 (stereo not shown) [Compound (69)] | 65% | 52% | – | – | –
CNC(C)C(C)(O)CCCC(C)(O)CCCC(C)C (stereo not shown) [Compound (70), 2-(methylamino)-3,7,11-trimethyl-3,7-dodecanediol] | 42% | 19% | – | – | –
CC(C)CCCC(C)(O)CCCC(C)(O)C(C)N(C)Cc1ccccc1 (stereo not shown) [Compound (71), 2-(benzylmethylamino)-3,7,11-trimethyl-3,7-dodecanediol] | 37% | 46% | – | – | –
CC(C)CCCC(C)CCCC(C)CCCC(C)(O)C(CO)N(C)C (stereo not shown) [Compound (72)] | 60% | 24% | 9% | 51% | –
CC(C)CCCC(C)CCCC(C)CCCC(C)(O)C(CO)N(C)CCO (stereo not shown) [Compound (73)] | 58% | 47% | 21% | 36% | –
CC(C)CCCC(C)CCCC(C)CCCC(C)(O)C(CO)N(C)CCOC(=O)c1cccnc1 (stereo not shown) [Compound (74)] | 16% | 20% | – | 43% | –
